In patent US9120812B2, “Pyrimidooxazocine derivatives as mTOR-inhibitors” (SANOFI, priority 2012, dated 2015):
pIC50: −log10 of the molar value.

Experiments:
U87MG tumour cells = test: Test of in vitro proliferation of U87MG tumour cells; type: cell-based; conditions: Homo sapiens, U-87 MG, 72 h, U87MG cells, 72 hours; read-out: U87 Cell Proliferation IC50
Procedure: Model 4: Test of in vitro Proliferation of U87MG Tumour Cells.
The cell growth is determined with the reagent CellTiter 96 AQueous One Solution Cell Proliferation Assay from Promega (Cat. No. G3581).

PI3Kα (p110α/p85α) = PI3Kα (p110α/p85α) (Homo sapiens (Human), UniProt P42336); test: PI3Kα enzymatic test by measuring the consumption of ATP; type: biochemical
PI3Kα (p110α/p85α), sequence (P42336 whole entry): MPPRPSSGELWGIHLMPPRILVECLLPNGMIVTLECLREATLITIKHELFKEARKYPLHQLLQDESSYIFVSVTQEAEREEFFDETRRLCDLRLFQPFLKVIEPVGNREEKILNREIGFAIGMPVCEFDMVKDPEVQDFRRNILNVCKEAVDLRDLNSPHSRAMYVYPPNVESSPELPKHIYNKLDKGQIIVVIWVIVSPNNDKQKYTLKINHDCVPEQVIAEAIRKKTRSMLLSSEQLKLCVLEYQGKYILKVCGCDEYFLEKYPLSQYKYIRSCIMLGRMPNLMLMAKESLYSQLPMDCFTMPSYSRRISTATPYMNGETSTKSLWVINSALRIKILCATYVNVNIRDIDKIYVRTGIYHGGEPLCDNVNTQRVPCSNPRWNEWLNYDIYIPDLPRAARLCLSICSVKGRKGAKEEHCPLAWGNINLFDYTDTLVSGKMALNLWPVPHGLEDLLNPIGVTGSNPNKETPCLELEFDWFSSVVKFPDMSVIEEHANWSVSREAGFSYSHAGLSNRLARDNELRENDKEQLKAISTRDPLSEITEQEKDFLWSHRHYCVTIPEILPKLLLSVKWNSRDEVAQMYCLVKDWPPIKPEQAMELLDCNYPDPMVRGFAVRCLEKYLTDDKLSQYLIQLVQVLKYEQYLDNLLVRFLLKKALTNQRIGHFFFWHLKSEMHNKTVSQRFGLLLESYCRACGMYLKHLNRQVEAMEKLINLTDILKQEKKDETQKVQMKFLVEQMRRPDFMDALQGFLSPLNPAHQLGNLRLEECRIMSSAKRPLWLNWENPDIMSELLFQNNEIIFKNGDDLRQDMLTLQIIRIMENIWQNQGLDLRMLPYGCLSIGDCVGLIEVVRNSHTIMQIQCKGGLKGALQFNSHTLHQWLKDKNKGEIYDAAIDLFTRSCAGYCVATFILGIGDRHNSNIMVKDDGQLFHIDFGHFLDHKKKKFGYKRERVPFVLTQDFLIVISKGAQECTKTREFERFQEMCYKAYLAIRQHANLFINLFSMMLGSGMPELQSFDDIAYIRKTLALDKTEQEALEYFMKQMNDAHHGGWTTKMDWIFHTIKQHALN
PI3Kα (p110α/p85α), sequence (P27986 whole entry partner): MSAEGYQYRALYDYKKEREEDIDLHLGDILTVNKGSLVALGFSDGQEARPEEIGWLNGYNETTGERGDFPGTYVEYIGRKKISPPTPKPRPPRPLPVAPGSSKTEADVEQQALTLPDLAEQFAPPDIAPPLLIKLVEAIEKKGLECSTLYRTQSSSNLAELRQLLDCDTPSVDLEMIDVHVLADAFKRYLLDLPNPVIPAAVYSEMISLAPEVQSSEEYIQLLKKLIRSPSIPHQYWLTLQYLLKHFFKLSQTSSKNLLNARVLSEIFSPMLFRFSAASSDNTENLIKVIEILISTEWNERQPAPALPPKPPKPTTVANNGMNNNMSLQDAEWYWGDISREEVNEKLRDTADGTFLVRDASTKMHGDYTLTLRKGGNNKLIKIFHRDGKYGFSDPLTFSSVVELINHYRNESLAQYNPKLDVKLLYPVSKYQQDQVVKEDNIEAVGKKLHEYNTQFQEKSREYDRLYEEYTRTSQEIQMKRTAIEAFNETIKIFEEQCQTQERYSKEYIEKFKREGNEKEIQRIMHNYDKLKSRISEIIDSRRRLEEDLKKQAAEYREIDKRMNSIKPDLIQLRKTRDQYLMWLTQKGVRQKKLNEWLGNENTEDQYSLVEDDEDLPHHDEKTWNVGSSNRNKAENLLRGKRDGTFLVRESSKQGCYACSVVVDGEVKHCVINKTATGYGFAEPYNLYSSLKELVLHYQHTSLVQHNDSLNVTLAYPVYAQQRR
Method in brief: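 ATP consumption read out by KinaseGlo luminescence after a 90 min reaction of 1.7 μg/ml PI3Kα (p110α/p85α) with 2 μM ATP and 50 μM PIP2, buffered at pH 7.5 (Tris, 10 mM MgCl2, 1 mM EGTA, 0.03% Chaps, 1 mM DTT). Threefold dilution series over ≥10 000-fold range yield IC50.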

[1] = target: mTOR (human recombinant aa mTOR 1360-2549) (Homo sapiens (Human), UniProt P42345); test: mTOR enzymatic test by TR-FRET (phosphorylation of GFP-4EBP1); type: biochemical
mTOR (human recombinant aa mTOR 1360-2549), sequence (P42345 1360-2549): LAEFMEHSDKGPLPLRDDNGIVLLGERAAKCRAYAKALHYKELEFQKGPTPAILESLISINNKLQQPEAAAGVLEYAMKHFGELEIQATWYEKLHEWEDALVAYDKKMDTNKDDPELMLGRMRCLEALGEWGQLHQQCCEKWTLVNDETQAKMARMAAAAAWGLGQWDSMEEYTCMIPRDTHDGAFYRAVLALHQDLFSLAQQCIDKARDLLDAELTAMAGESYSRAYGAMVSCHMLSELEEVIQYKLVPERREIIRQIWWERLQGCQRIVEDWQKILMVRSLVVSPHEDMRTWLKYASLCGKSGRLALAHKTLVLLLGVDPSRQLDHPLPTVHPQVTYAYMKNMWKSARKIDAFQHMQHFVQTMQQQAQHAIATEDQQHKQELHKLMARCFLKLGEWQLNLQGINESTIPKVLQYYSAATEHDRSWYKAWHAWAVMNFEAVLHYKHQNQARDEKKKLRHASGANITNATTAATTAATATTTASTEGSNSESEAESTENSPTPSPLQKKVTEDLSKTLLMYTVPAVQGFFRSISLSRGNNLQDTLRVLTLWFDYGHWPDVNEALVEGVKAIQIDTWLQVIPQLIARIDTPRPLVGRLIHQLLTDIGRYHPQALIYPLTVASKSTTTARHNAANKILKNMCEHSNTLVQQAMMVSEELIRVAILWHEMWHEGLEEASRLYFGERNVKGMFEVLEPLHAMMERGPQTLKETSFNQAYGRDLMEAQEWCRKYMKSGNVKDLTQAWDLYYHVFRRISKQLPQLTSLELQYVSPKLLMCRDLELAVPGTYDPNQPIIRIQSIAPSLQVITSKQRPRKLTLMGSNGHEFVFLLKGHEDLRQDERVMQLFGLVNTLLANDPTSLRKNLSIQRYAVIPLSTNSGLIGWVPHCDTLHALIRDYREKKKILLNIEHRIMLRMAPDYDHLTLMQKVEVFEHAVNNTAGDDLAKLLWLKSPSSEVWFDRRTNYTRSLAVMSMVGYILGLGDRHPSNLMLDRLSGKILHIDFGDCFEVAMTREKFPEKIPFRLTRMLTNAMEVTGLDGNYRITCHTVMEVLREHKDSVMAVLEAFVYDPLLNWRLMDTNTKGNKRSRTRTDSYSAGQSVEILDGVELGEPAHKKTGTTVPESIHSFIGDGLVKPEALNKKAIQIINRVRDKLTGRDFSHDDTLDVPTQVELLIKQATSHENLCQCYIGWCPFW
Method in brief: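 After a 30 min room-temperature kinase reaction, EDTA (10 mM final) and Tb-labelled phospho-Thr46 antibody (2 nM final) were added and incubated 60 min. Energy transfer from Tb to phosphorylated GFP-4EBP1 was read at 340 nm excitation, emissions 490/520 nm. Values derive from the 520/490 fluorescence ratio.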

Akt-pS473 in U87MG cells = conditions: Homo sapiens, U-87 MG; for IC50: read-out: U87 Akt-pS473 % Inhibition or IC50, nM (IC50), U87MG cells

SMILES | pIC50 (U87MG tumour cells) | PI3Ka IC50 (PI3Kα (p110α/p85α)) | pIC50 [1] | inhibition at 1 µM (Akt-pS473 in U87MG cells; read-out: U87 Akt-pS473 % Inhibition) | IC50 (Akt-pS473 in U87MG cells)
CCN1CC(C)(C)Oc2nc(N3C[C@@H]4C[C@H]3CO4)nc(-c3ccc(NC(=O)NC)c(F)c3)c2C1=O [Example 206, 1-[4-((1S,4S)-6-Ethyl-8,8-dimethyl-2-2-oxa-5-azabicyclo[2.2.1]hept-5-yl-5-oxo-5,6,7,8-tetrahydro-9-oxa-1,3,6-triazabenzocyclohepten-4-yl)-2-fluorophenyl]-3-methylurea] | 5.87 | >10000 nM | 6.84 | 87% | 
CCN1CC(C)(C)Oc2nc(N3C4CCC3COC4)nc(-c3ccc(NC(=O)NC)c(F)c3)c2C1=O [Example 207, 1-{4-[6-Ethyl-8,8-dimethyl-2-(3-oxa-8-azabicyclo[3.2.1]oct-8-yl)-5-oxo-5,6,7,8-tetrahydro-9-oxa-1,3,6-triazabenzocyclohepten-4-yl]-2-fluorophenyl}-3-methylurea] | 7.13 | >10000 nM | 7.74 |  | 19 nM
CCN1CC(C)(C)Oc2nc(N3CCOC[C@@H]3C)nc(-c3ccc(NC(=O)Nc4cc(OC)c(F)cc4F)cc3)c2C1=O [Example 208, 1-(2,4-Difluoro-5-methoxyphenyl)-3-{4-[6-ethyl-8,8-dimethyl-2-((S)-3-methylmorpholin-4-yl)-5-oxo-5,6,7,8-tetrahydro-9-oxa-1,3,6-triazabenzocyclohepten-4-yl]phenyl}urea] | 6.74 | 1240 nM | 7.09 |  | 26 nM
CCN1CC(C)(C)Oc2nc(N3CCOC[C@@H]3C)nc(-c3ccc(NC(=O)OCCO)c(F)c3)c2C1=O [Example 209, {4-[6-Ethyl-8,8-dimethyl-2-((S)-3-methylmorpholin-4-yl)-5-oxo-5,6,7,8-tetrahydro-9-oxa-1,3,6-triazabenzocyclohepten-4-yl]-2-fluorophenyl}carbamic acid 2-hydroxyethyl ester] | 5.98 | >10000 nM | 6.81 |  | 69 nM
CNC(=O)Nc1ccc(-c2nc(N3CC4CCC(C3)O4)nc3c2C(=O)N(CCOC)CC(C)(C)O3)cc1F [Example 210, 1-{2-Fluoro-4-[6-(2-methoxyethyl)-8,8-dimethyl-2-(8-oxa-3-azabicyclo[3.2.1]oct-3-yl)-5-oxo-5,6,7,8-tetrahydro-9-oxa-1,3,6-triazabenzocyclohepten-4-yl]phenyl}-3-methylurea] | 6.20 | >10000 nM | 7.39 |  | 174 nM
CCNC(=O)Nc1ccc(-c2nc(N3CC4CCC(C3)O4)nc3c2C(=O)N(CCOC)CC(C)(C)O3)cc1F [Example 211, 1-Ethyl-3-{2-fluoro-4-[6-(2-methoxyethyl)-8,8-dimethyl-2-(8-oxa-3-azabicyclo[3.2.1]oct-3-yl)-5-oxo-5,6,7,8-tetrahydro-9-oxa-1,3,6-triazabenzocyclohepten-4-yl]phenyl}urea] | 6.05 | >10000 nM | 7.06 |  | 270 nM
CCN1CC(C)(C)Oc2nc(N3CCOC[C@@H]3C)nc(-c3ccc(NC(=O)Nc4cccc(OC(F)F)c4)c(F)c3)c2C1=O [Example 212, 1-(3-Difluoromethoxyphenyl)-3-{4-[6-ethyl-8,8-dimethyl-2-((S)-3-methylmorpholin-4-yl)-5-oxo-5,6,7,8-tetrahydro-9-oxa-1,3,6-triazabenzocyclohepten-4-yl]-2-fluorophenyl}urea] | 7.15 | 1540 nM | 6.85 |  | 8 nM
CCN1CC(C)(C)Oc2nc(N3CCOC[C@@H]3C)nc(-c3ccc(NC(=O)Nc4cc(OC)ccc4F)cc3)c2C1=O [Example 213, 1-{4-[6-Ethyl-8,8-dimethyl-2-((S)-3-methylmorpholin-4-yl)-5-oxo-5,6,7,8-tetrahydro-9-oxa-1,3,6-triazabenzocyclohepten-4-yl]phenyl}-3-(2-fluoro-5-methoxyphenyl)urea] | 6.99 | 991 nM | 7.32 |  | 20 nM
